The text below walks through data of US20060258630A1, “Method for the prevention and treatment of uveitis” (BioXell S.p.A., priority 2003, published 2006).

Entries after “also recorded” stand apart in the source; their conditions may differ.

Data set [1] deals with EAU-susceptible B10.RIII mice. The data set is described as follows: Experimental autoimmune uveoretinitis (EAU) induced with IRBP in CFA. Format: in vivo. The following applies: for Prevention of EAU: administered from day −6 to 2. The source says:
EAU an autoimmune disease mediated by Th1-type uveitogenic CD4+ T cells serves as a model for human posterior uveitis. […] EAU development was followed by funduscopy and confirmed by histopathology on eyes collected 21 days after immunization.

For data set [2], the system named is IFN-γ production in allogeneic PBMC co-culture (MLR). The data set is described as follows: IFN-γ production by allogeneic T cell activation in the mixed leukocyte response (MLR), ELISA. Type of data set: cell-based. The following applies: 120 h, 5 days, read-out: INF-γ IC50. Here is the method:
Immature dendritic cells. (DC) were prepared as described in Romani, N. et al. (Romani, N. et al. (1996) J. Immunol. Meth. 196:137). IFN-γ production by allogeneic T cell activation in the mixed leukocyte response (MLR) was determined as described in Penna, G., et al., J Immunol., 164: 2405-2411 (2000).
Briefly, peripheral blood mononuclear cells (PBMC) were separated from buffy coats by Ficoll gradient and the same number (3×10^5) of allogeneic PBMC from 2 different donors were co-cultured in 96-well flat-bottom plates. The vitamin D3 compounds were added to each of the cultures.
On the technique in general: An ELISA detects its analyte on a solid surface through an enzyme-linked reagent.

In data set [3] the test system is primed lymph node cells (LN). Nature of the data set: In vitro assay of primed lymph node cells (LN) from EAU mice: proliferation, polarization, cytokine and chemokine release. Type of data set: cell-based. The conditions noted are these: for Inhibition of specific T cell proliferation and T cell polarization: primed lymph node cells, FIG. 4. The text has this:
It can be concluded that delayed hypersensitivity to IRBP in treated mice is correlated with disease severity. […] Preventive treatment remarkably diminished both IFN-gamma and IL-17 production by LN.
In consistency with disease amelioration, Ag driven chemokine release, such as MIP-1a, Rantes and TARC, is inhibited by Vitamin D3 derivatives as shown in FIG. 5. The further mechanism(s) involved in inhibition of EAU by VDR agonists are being investigated.

A short description of data set [4]: Determination of maximum tolerated dose (MTD), serum calcium / hypercalcemia. The conditions noted are these: female, C57BL/6, mouse, serum, po. As to the method:
(§1) The maximum tolerated dose of the vitamin D3 compounds of the invention were determined in eight week-old female C57BL/6 mice (3 mice/group) dosed orally (0.1 ml/mouse) with various concentrations of Vitamin D3 analogs daily for four days. Analogs were formulated in miglyol for a final concentration of 0.01, 0.03, 0.1 0.3, 1, 3, 10, 30, 100 and 300 μg/kg when given at 0.1 ml/mouse p.o. daily. Blood for serum calcium assay was drawn by tail bleed on day five, the final day of the study.

The subject of the next data set is female C57BL/6 mice. The data set is described as above. The following applies: for MTD (mice): oral daily for four days, highest dose without hypercalcemia (serum calcium>10.7 mg/dl); for MTD compared with the corresponding parent dihydroxy compound: (2) vs (1), (4) and (5) vs (3). As to the method: as §1

Take `C=C1/C(=C\C=C2/CCC[C@@]3(C)C2CCC3C2(CCCC(C)(C)O)CC2)C[C@@H](OC(C)=O)C[C@@H]1OC(C)=O` (stereo partly drawn) [Compound (35), 1,3-Di-O-acetyl-1,25-dihydroxy-20-cyclopropyl-cholecalciferol]: the “Prevention of EAU” value in data set [1] (Compound A 10 μg/kg orally, listed as Compound A) was “can prevent EAU; also recorded: capable of preventing”. Also, the “Inhibition of EAU development, therapeutic treatment” value in data set [1] (treatment started 7 days after immunization, listed as Compound A) is on record as “could inhibit EAU development; also recorded: treating EAU”. Also, the IC50 in data set [2] stood at 0.0027 nM. For the same compound, the “Inhibition of specific T cell proliferation and T cell polarization” value in data set [3] was “potent”. Further, in data set [3] (therapeutic administration), the IFN-g production result is listed as “not” and the IL-17 production entry is listed as “markedly inhibited”. Moreover, the MTD at 4 days in data set [4] was 30 µg/kg.
For `C=C1/C(=C\C=C2/CCC[C@]3(C)C(C(C)C/C=C/C(C)(C)O)=CCC23)CC(OC(C)=O)C[C@@H]1OC(C)=O` (stereo partly drawn) [(9), 1,3-Di-O-acetyl-1,25-dihydroxy-16,23E-diene-cholecalciferol], in data set [2], the IC50 was 0.013 nM. Also, the MTD at 4 days in data set [4] is 3 µg/kg.
In the case of `C=C1/C(=C\C=C2/CCC[C@]3(C)C(C4(CCCC(C)(C)O)CC4)=CCC23)CC(OC(C)=O)C[C@@H]1OC(C)=O` (stereo partly drawn) [(39), 1,3-Di-O-acetyl-1α,25-hydroxy-16-ene-20-cyclopropyl-cholecalciferol], in the data set with female C57BL/6 mice, the “MTD (mice)” value is 3 µg/kg.
For `C=C1/C(=C\C=C2/CCC[C@]3(C)C(C(C)C/C=C/[C@@](C)(O)C(F)(F)F)=CCC23)CC(OC(C)=O)C[C@@H]1OC(C)=O` (stereo partly drawn) [(16), 1,3-Di-O-acetyl-1,25-dihydroxy-16,23E-diene-25R,26-trifluoro-cholecalciferol], the IC50 in data set [2] was 0.0513 nM. In addition, the MTD at 4 days in data set [4] is 0.3 µg/kg.
For `CC(=O)OC1C/C(=C/C=C2\CCC[C@@]3(C)C2CCC3C2(CC#CC(C)(C)O)CC2)C[C@@H](OC(C)=O)C1` (stereo partly drawn) [(24), 1,3-Di-O-acetyl-1,25-dihydroxy-20-cyclopropyl-23-yne-19-nor-cholecalciferol] the same measures were 0.802 nM and 100 µg/kg.
Regarding `CC(=O)OC1C/C(=C/C=C2\CCC[C@@]3(C)C2CCC3C2(CC#CC(OC(C)=O)(C(F)(F)F)C(F)(F)F)CC2)C[C@@H](OC(C)=O)C1` (stereo partly drawn) [(26), 1,3,25-Tri-O-acetyl-1,25-dihydroxy-20-cyclopropyl-23-yne-26,27-hexafluoro-19-nor-cholecalciferol], the “MTD (mice)” value in the data set on female C57BL/6 mice was 10 µg/kg.
Still for that read-out and setting: as for `C=C1/C(=C\C=C2/CCC[C@]3(C)C(C(C)CC#CC(OC(C)=O)(C(F)(F)F)C(F)(F)F)=CCC23)CC(OC(C)=O)C[C@@H]1OC(C)=O` (stereo partly drawn) [(13), 1,3,25-Tri-O-acetyl-1,25-dihydroxy-16-ene-23-yne-26,27-hexafluoro-cholecalciferol], the figure is 3 µg/kg; as for `C=C1/C(=C\C=C2/CCC[C@@]3(C)C2CCC3C(C)CC#CC(C)(C)O)CC(OC(C)=O)C[C@@H]1OC(C)=O` (stereo partly drawn) [(41), 1,3-Di-O-acetyl-1,25-dihydroxy-23-yne-cholecalciferol], 1 µg/kg.
In the case of `CC(CC#CC(O)(C(F)(F)F)C(F)(F)F)C1=CCC2C(=CC=C3CC(O)CC(O)C3)CCCC12C` (stereo not drawn) [(3), 1,25-dihydroxy-16-ene-23-yne-26,27-hexafluoro-19-nor-cholecalciferol, reference compound], in the data set with female C57BL/6 mice, the “MTD (mice)” value was 0.3 µg/kg.
Consider `CC(=O)OC1C/C(=C/C=C2\CCC[C@]3(C)C(C(C)C/C=C\C(O)(C(F)(F)F)C(F)(F)F)=CCC23)C[C@@H](OC(C)=O)C1` (stereo partly drawn) [(2), 1,3-Di-O-acetyl-1,25-dihydroxy-16,23Z-diene-26,27-hexafluoro-19-nor-cholecalciferol], for which the “MTD compared with the corresponding parent dihydroxy compound” value with female C57BL/6 mice is “significantly higher”.
Turning to `C=C1/C(=C\C=C2/CCC[C@]3(C)C(C(C)CC#CC(C)(C)O)=CCC23)CC(OC(C)=O)C[C@@H]1OC(C)=O` (stereo partly drawn) [(7), 1,3-Di-O-acetyl-1,25-dihydroxy-16-ene-23-yne-cholecalciferol], the “MTD (mice)” value with female C57BL/6 mice was 10 µg/kg.
On the same count and under the same terms, as for `C=C1/C(=C\C=C2/CCC[C@@]3(C)C2CCC3C2(CC#CC(C)(C)O)CC2)CC(OC(C)=O)C[C@@H]1OC(C)=O` (stereo partly drawn) [(29), 1,3-Di-O-acetyl-1,25-dihydroxy-20-cyclopropyl-23-yne-cholecalciferol], the figure is 30 µg/kg; as for `C=C1/C(=C\C=C2/CCC[C@]3(C)C(C(C)CC#CC(O)(C(F)(F)F)C(F)(F)F)=CCC23)CC(OC(C)=O)C[C@@H]1OC(C)=O` (stereo partly drawn) [(14), 1,3-Di-O-acetyl-1,25-dihydroxy-16-ene-23-yne-26,27-hexafluoro-cholecalciferol], 10 µg/kg.
Turning to `C=C1/C(=C\C=C2/CCC[C@]3(C)[C@@H]([C@H](C)CCCC(C)(C)O)CC[C@@H]23)C[C@@H](O)C[C@@H]1O` [1,25(OH)2D3, calcitriol, reference compound], the “Prevention of EAU” value in data set [1] (calcitriol 0.5 μg/kg orally) is recorded as “can prevent EAU; also recorded: effectively prevents EAU”. Also, the IC50 in data set [2] amounted to 0.022 nM. In data set [3], the “Inhibition of specific T cell proliferation and T cell polarization” value is on record as “potent”. Further, the MTD at 4 days in data set [4] was 1 µg/kg.
Regarding `CC(=O)OC1C/C(=C/C=C2\CCC[C@]3(C)C(C(C)CC#CC(C)(C)O)=CCC23)C[C@@H](OC(C)=O)C1` (stereo partly drawn) [(20), 1,3-Di-O-Acetyl-1,25-dihydroxy-16-ene-23-yne-19-nor-cholecalciferol], the IC50 in data set [2] amounted to 0.025 nM. Further, in data set [4], the MTD at 4 days is 30 µg/kg.
For `CC(=O)OC1C/C(=C/C=C2\CCC[C@]3(C)C(C(C)CCCC(C)(C)O)=CCC23)C[C@@H](OC(C)=O)C1` (stereo partly drawn) [(18), 1,3-Di-O-acetyl-1,25-dihydroxy-16-ene-19-nor-cholecalciferol] the same measures were 0.003 nM and 3 µg/kg.
Consider `CC(=O)OC1C/C(=C/C=C2\CCC[C@]3(C)C(C4(CCCC(C)(C)O)CC4)=CCC23)C[C@@H](OC(C)=O)C1` (stereo partly drawn) [(37), 1,3-Di-O-acetyl-1α,25-dihydroxy-16-ene-20-cyclopropyl-19-nor-cholecalciferol], for which the “MTD (mice)” value in the data set on female C57BL/6 mice was 10 µg/kg.
With `C=C1/C(=C\C=C2/CCC[C@]3(C)C(C(C)CCCC(C)(C)O)=CCC23)CC(OC(C)=O)C[C@@H]1OC(C)=O` (stereo partly drawn) [(11), 1,3-Di-O-acetyl-1,25-dihydroxy-16-ene-cholecalciferol], the IC50 in data set [2] came to 0.036 nM. Further, the MTD at 4 days in data set [4] was 1 µg/kg.
Regarding `CC(=O)OC1C/C(=C/C=C2\CCC[C@]3(C)C(C(C)CC#CC(OC(C)=O)(C(F)(F)F)C(F)(F)F)=CCC23)C[C@@H](OC(C)=O)C1` (stereo partly drawn) [(5), 1,3,25-Tri-O-acetyl-1,25-Dihydroxy-16-ene-23-yne-26,27-hexafluoro-19-nor-cholecalciferol], in the data set with female C57BL/6 mice, the “MTD compared with the corresponding parent dihydroxy compound” value was “considerably-greater; also recorded: significantly higher” and the “MTD (mice)” value is 3 µg/kg.
Turning to `CC(=O)OC1C/C(=C/C=C2\CCC[C@@]3(C)C2CCC3C2(CC#CC(O)(C(F)(F)F)C(F)(F)F)CC2)C[C@@H](OC(C)=O)C1` (stereo partly drawn) [(27), 1,3-Di-O-acetyl-1,25-dihydroxy-20-cyclopropyl-23-yne-26,27-hexafluoro-19-nor-cholecalciferol], in the data set with female C57BL/6 mice, the “MTD (mice)” value was 10 µg/kg.
For `CC(=O)OC1C/C(=C/C=C2\CCC[C@@]3(C)C2CCC3C2(C/C=C/C(O)(C(F)(F)F)C(F)(F)F)CC2)C[C@@H](OC(C)=O)C1` (stereo partly drawn) [(31), 1,3-Di-O-acetyl-1,25-dihydroxy-20-cyclopropyl-23E-ene-26,27-hexafluoro-19-nor-cholecalciferol], the “MTD (mice)” value in the data set on female C57BL/6 mice was 0.3 µg/kg.
Consider `CC(=O)OC1C/C(=C/C=C2\CCC[C@@]3(C)C2CCC3C2(C/C=C\C(O)(C(F)(F)F)C(F)(F)F)CC2)C[C@@H](OC(C)=O)C1` (stereo partly drawn) [(33), 1,3-Di-O-acetyl-1,25-dihydroxy-20-cyclopropyl-23Z-ene-26,27-hexafluoro-19-nor-cholecalciferol], for which the IC50 in data set [2] turned out to be 0.099 nM. In addition, the MTD at 4 days in data set [4] is 10 µg/kg.
For `CC(=O)OC1C/C(=C/C=C2\CCC[C@]3(C)C(C(C)CC#CC(O)(C(F)(F)F)C(F)(F)F)=CCC23)C[C@@H](OC(C)=O)C1` (stereo partly drawn) [(4), 1,3-Di-O-acetyl-1,25-Dihydroxy-16-ene-23-yne-26,27-hexafluoro-19-nor-cholecalciferol], in the data set on female C57BL/6 mice, the “MTD compared with the corresponding parent dihydroxy compound” value is given as “considerably-greater; also recorded: significantly higher” and the “MTD (mice)” value is 10 µg/kg.
On to `CCC(O)(C#CCC(C)C1=CCC2/C(=C/C=C3/CC(OC(C)=O)C[C@H](OC(C)=O)C3)CCC[C@]12C)CC` (stereo partly drawn) [(22), 1,3-Di-O-acetyl-1,25-dihydroxy-16-ene-23-yne-26,27-bishomo-19-nor-cholecalciferol], for which, in the data set with female C57BL/6 mice, the “MTD (mice)” value is 100 µg/kg.

A word on the IC50: it is the concentration needed to halve the response being measured. As a reminder, the MTD is the largest dose that counted as tolerated.
